Active and inactive are the calls of the source. No cut-off for these calls is given here.
Tests used:
[1] = tested on: PC-12; assay: Potentiation of NGF-induced neurite outgrowth in rat PC12 cells at 0.1 to 10 uM after 4 days using methylene blue staining by phase-contrast microscopy; format: functional, cell-based
[2] = tested on: PC-12; assay: Potentiation of NGF-induced neurite outgrowth in rat PC12 cells after 4 days using methylene blue staining by phase-contrast microscopy; format: functional, cell-based

O=C(/C=C/CCCCCCCC/C=C/c1ccc2c(c1)OCO2)N1CCCCC1
Activity [1]: inactive

O=C(/C=C/C=C/c1ccc2c(c1)OCO2)N1CCCCC1
Activity [1]: inactive

CCCCC/C=C\CCCC/C=C/C=C/C(=O)NCC(C)C
Activity [1]: inactive

O=C(CCC(=O)c1ccc2c(c1)OCO2)C(=O)N1CCCCC1
Activity [2]: Dose-dependent effect
